The test system of series [1] is rats injected with MAB35 monoclonal antibody. The experiment in a line: Rotarod running performance in passive immunization model of myasthenia gravis (MAB35). The format is in vivo, rat. Particulars: compared to sham. As to the method: FIG. 10. […] Prior to I.P. injection of MAB35 the animals had been familiarized to the rotarod over three training sessions distributed over two days. […] After this treatment performance was monitored every second hour. *Indicates significant different as evaluated using student t-test.
(§1) In both series of experiments, running performance was tested on a rotarod using a protocol where the rod was accelerated gradually over a 5 min period, and the running time and covered distance before falling off the rod were measured.
In experiments with MAB35, animals were first familiarized with the rotarod over two consecutive days and then injected I.P. with MAB35. After injection, rotarod performance was then again monitored regularly over the consecutive two days. […] A considerable number of animals, however, became moribund failing to walk and they had altered ventilation (rapid) and pronounced ptosis. These animals were not included in experiments.
In the last series of experiments, myasthenia gravis was mimicked in rats by inducing an immunological reaction against the motor endplate of muscle fibers using monoclonal antibody against the nicotinic ACh receptor in muscle fibers. Again the animals had been familiarized to the rotarod before the MAB35 injection. […] From FIG. 10 it can be seen that upon injection sham treatment the performance further declined.
For orientation: The rotarod test checks motor coordination on a turning rod.

The test system of series [2] is isolated rat soleus muscles. The experiment in a line: Recovery of nerve-stimulated force in isolated rat soleus muscles exposed to sub-maximal tubocurarine. The class given is cell-based. The procedure: (§2) Experiments were performed using rat soleus muscles from either young (4-wk-old) or adult Wistar rats (12-14-week-old). Animal handling, killing and isolation of muscle is described elsewhere^26 All experiments were performed using normal Krebs-Ringer bicarbonate solution^26 (NKR). In solutions with elevated Mg^2+, MgCl2 was added to NKR-solution causing minor increases in osmolarity and ionic strength. In solutions with elevated K^+, 4 mM NaCl was replaced by 4 mM KCl in the NKR.
In all contraction experiments, isometric force production was determined and force produced during contractions was quantified by measuring the integral of the force response (AUC). Stimulation and force recordings have been described elsewhere^26. […] In these latter experiments, extracellular recordings of action potentials (M-waves) could be measured without temporal overlap with stimulation artefacts.
To initially confirm that inhibition of ClC-1 ion channels can be used to recover contractile force in muscle with reduced neuromuscular transmission, isolated nerve-muscle preparations were first exposed to either tubocurarine (FIG. 2A) or elevated Mg^2+ (FIG. 2B) and then a specific ClC-1 inhibitor (9-AC) was added. […]

Series [3] is described as follows: Pharmacokinetic analysis of a single I.P. dose in rats. The class given is in vivo. The note with it: rat, ip, single I.P. dose 10 mg/kg, Sprague-Dawley rats, plasma. As to the method: This part of the study was performed by Pipeline Biotech A/S (Spørring, Denmark). […] Plasma concentrations (free and bound) were determined by OnTarget Chemistry (Uppsala, Sweden, Project No.: PB243-001).
Before conducting in vivo experiments with animal models of myasthenia gravis, some pharmacokinetic details were obtained for C8 in response to one-bolus I.P. injection.

Series [4] concerns rats injected with tubocurarine. The experiment in a line: Rotarod running performance of rats after I.P. tubocurarine (myasthenia like phenotype). The format is in vivo, rat. Particulars: C8 20 mg/kg I.P. 2 hrs before tubocurarine 0.13 mg/kg I.P.; tested 21 minutes after tubocurarine; sham around 2%. As to the method:
FIG. 9. […] A) illustrates the design of the experiments. Prior to Day One the animals had been familiarized to the rotarod in three training sessions distributed over two days.
as §1
Experiments with tubocurarine were carried out over two days, and on each day the effect of tubocurarine on running performance was tested. On the first day only tubocurarine was injected. […] On the second day, the animals were first allowed to run on the rotarod, and all animals performed normally. […] The allocation of the animals into the two groups (C8 or sham) was random and unknown to the experimenter (blinded experimental design).
In the first series of in vivo experiments, myasthenia gravis was simply mimicked by I.P. injection of tubocurarine (0.13 mg/kg) in animals that had been familiarized to running on the rotarod. On the first of two consecutive days, tubocurarine was injected I.P. and the running performance of the animal was tested 21 minutes after this injection. On the second day of experimentation, the animals first performed a test run to ensure that they were no longer affected by the tubocurarine injected the day before. […]

The subject of series [5] is rat soleus muscles. The class given is cell-based. Particulars: 10 and 25 μM, compared to control conditions; 1 μM μ-conotoxin GiiiB.
For series [6], the system named is isolated human muscles. The class given is cell-based. The note with it: 150 μM C8; elevated K+ and TTX.
The subject of series [7] is soleus muscles. The experiment in a line: Mg2+ concentration required to depress nerve-stimulated force by 50% (Kd,Mg2+), combination treatments. The format is cell-based, rat. The note with it: C8 combined with 3,4-diaminopyridine. As to the method:
FIG. 6. […] Muscles from 4-week-old rats were stimulated to contract by activating the motor nerve with short duration pulses in field stimulation. Muscles contracted every 10 min for 2 s in response to 30 Hz stimulation. Four different experimental conditions were used. […] C) similar to A) but this muscle had been pre-incubated with 3,4-AP. […] The force integral (AUC) was determined at each extracellular Mg^2+ concentration. AUC was plotted against Mg^2+ concentration and the data was fitted to a sigmoidal function (FIG. 6E). This provided the extracellular Mg^2+ concentration that was required to reduce the nerve-stimulated force to 50% (Mg50) under the four different conditions (see Table 5).
While the use of tubocurarine mimics conditions with reduced neuromuscular transmission due to post-synaptic dysfunction (myasthenia gravis, neuromuscular blockade), the experiments with elevated extracellular Mg^2+ mimics conditions with pre-synaptic dysfunction akin to a range of neuromuscular disorders including Lambert Eaton syndrome^26, motor neuron disorders^6-9 and polyneuropathy^18, 19. […] Based on this it was determined whether recovery of nerve-stimulated force at elevated extracellular Mg^2+ with ClC-1 inhibiting compounds could be added to force recovery with 3,4-AP. […] To quantify the effect of compounds on Mg^2+ sensitivity the force at the different Mg^2+ concentrations was determined. […]

Series [8] relates to isolated rat soleus muscles. The experiment in a line: Recovery of nerve-stimulated force in isolated rat soleus muscles at elevated extracellular Mg2+ (3.5 mM). The note with it: muscle at elevated Mg2+ (3.5 mM); FIG. 2B. The format is cell-based. The procedure: as §2
In all contraction experiments, isometric force production was determined and force produced during contractions was quantified by measuring the integral of the force response (AUC). Stimulation and force recordings have been described elsewhere^26. […] In these latter experiments, extracellular recordings of action potentials (M-waves) could be measured without temporal overlap with stimulation artefacts. […]
The next series of experiments determined whether the compounds that recovered nerve-stimulated force in the presence of tubocurarine could also recover nerve-stimulated force at elevated extracellular Mg^2+.

Molecules are shown by their SMILES.

What is called AUC(0-t) is exposure summed from dosing to a finite time, without extrapolation to infinity. Read a high AUC(0-t) as high exposure. One may read the Cmax as the highest concentration seen after dosing.

`C[C@H](Oc1ccc(Br)cc1)C(=O)O` [Compound C8, (2S)-2-(4-bromophenoxy)propanoic acid]: in series [1] (20 mg/kg C8 I.P.), the “rotarod running performance after injection” value is recorded as “decline was reduced”. Moreover, the “rotarod running performance after injection” value in series [1] (30 mg/kg C8 I.P.) was “clear recovery of performance”. Besides, the “nerve-stimulated force after addition of compound (in words)” value in series [2] (50 μM added after 40 min in tubocurarine, FIG. 3A) was “recovered markedly”. Further, in series [3], the AUC(0-t) stood at 204 µg·h/mL, the C0 is 24500 ng/mL and the peak level (Cmax) was 44600 ng/mL. Also, the AUC(0-inf) in series [3] (read-out: AUC 0-inf_obs) was determined as 205 µg·h/mL. Also, the half-life in series [3] (read-out: t½ (converted)) is 3.7 h. Also, the “increase in running distance on second day compared to first day” value in series [4] is on record as “around 150%”. Further, the EPP amplitude result in series [5] is “significantly larger EPPs”. Further, the contractile force result in series [6] is recorded as “markedly recovery”. Besides, the “effect of combination on recovery of neuromuscular transmission” value in series [7] was “unexpected synergistic effect”.
As to `O=C(O)c1c2ccccc2cc2ccccc12` [Compound 9-AC, reference compound], the “recovery of force and M-wave signal” value in series [2] (muscle exposed to tubocurarine, FIG. 2A) is “marked recovery of both force and M-wave signal”; in series [8], “marked recovery of both force and M-wave signal”.

For the origin of these results see US10934244B2, “Compounds for use in treating neuromuscular disorders” (NMD PHARMA A/S, priority 2015, dated 2021).
